Reference: patent publication US20080039455A1, “PYRAZOLOPYRIMIDINES AND SALTS THEREOF, PHARMACEUTICAL COMPOSITIONS COMPRISING SAME, METHODS OF PREPARING SAME AND USES OF SAME” (priority 2006, published 2008)
Counter-ions that a name gives are not always drawn.

What was measured:
[1] = target: T1, human recombinant ALK1 (GST fused to ALK1 intracellular domain [His142-Gln503]) (Homo sapiens, UniProt P37023); assay: ALK1-Kinase Flashplate-Assay; assay type: biochemical; conditions: 0.5 μM ATP, biotinylated α-casein substrate; read-out: Assay 1 (ALK1-Kinase Flashplate-Assay IC50 class)
T1 construct: GST fused to ALK1 intracellular domain [His142-Gln503]; made in house
T1 sequence (P37023 142-503): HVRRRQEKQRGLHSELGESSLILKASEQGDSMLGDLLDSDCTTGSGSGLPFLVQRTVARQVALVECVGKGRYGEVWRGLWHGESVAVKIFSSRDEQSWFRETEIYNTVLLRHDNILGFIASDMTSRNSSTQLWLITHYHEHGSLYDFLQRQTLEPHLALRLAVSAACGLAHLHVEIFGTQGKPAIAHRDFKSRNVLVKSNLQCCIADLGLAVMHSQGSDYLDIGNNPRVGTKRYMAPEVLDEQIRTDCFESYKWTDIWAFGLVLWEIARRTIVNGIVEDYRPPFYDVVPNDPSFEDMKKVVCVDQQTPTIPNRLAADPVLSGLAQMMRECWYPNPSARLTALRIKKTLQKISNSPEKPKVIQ
Procedure, shortened: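 Radiometric Flashplate assay at 20 °C: GST-ALK1 intracellular domain (5 ng/well) with 1 μM biotinylated bovine α-casein, 0.5 μM ATP plus [γ-33P]ATP in Tris pH 8.0, 1 mM MnCl2, 1% or 5% DMSO, 60 min. Normalised to no-inhibitor (0%) and 10 mM EDTA (100%); IC50 by 4-parameter fit.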

[2] = target: T2, ALK1 (wildtype full-length ALK1 receptor) (Homo sapiens, UniProt P37023); assay: ALK1 transactivation assay (ID1-promoter luciferase reporter in transfected HepG2 cells); assay type: cell-based; conditions: ID1-luc reporter, 18 h, read-out: Assay 2 (ALK1 transactivation assay IC50 class)
T2 construct: expression vector for wildtype full-length ALK1 receptor; expressed in transfected cells; host or cells: HepG2 (ATCC HB-8065), transient transfection with ALK1wt in pcDNA3.1
T2 sequence (P37023 22-503): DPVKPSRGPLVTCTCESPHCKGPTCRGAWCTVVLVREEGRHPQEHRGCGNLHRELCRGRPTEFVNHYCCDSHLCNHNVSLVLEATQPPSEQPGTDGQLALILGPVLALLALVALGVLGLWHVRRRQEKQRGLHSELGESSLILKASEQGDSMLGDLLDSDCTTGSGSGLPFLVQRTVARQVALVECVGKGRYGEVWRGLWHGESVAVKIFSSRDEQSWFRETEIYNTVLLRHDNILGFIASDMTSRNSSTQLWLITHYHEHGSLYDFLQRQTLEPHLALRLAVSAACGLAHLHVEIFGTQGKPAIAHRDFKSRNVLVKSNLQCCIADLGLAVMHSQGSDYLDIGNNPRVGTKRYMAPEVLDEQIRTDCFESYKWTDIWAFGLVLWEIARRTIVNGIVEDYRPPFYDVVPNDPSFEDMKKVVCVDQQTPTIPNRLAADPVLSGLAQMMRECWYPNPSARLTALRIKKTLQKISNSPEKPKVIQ
From the text: Biological Assay 2: ALK1 Transactivation Assay
Herein HepG2 cell-cultures were transiently transfected by known techniques with an ALK1 plasmid (expression vector for wildtype full-length ALK1 receptor) and ID1 reporter plasmid containing 1.3 kB (−1370 to +86) of the ID1-promoter upstream of a luciferase reporter gene. ID1 is a known target gene of ALK1 and therefore gets transactivated by cotransfection with the ALK1 receptor. The specific transactivation is quantified via relative light units (RLU) which are detected in dependence of luciferase expression. Therefore a commercially available detection kit which contains the luciferase substrate luciferine was used.
HepG2 cells, ATCC HB-8065
96well plate polypropylene for compound dilution in DMSO
DMEM Ham's F12 (Biochrom #F4815) with 10% FCS after dialysis, 1% PenStrep and 200 mM Glutamine
steadyliteHTS (Perkin Elmer# 6016981)
Day 1: Seeding of Cells on 96-Well Plates
HepG2 cells are seeded on 96-well plates at a density of 7000 cells/ well in DMEM/HamsF12+5% FCS (+1% P/S, +1% Gln).
Day 2: Transfection of Cells
200 ng DNA: 100 ng ID1-luc (in pGL3basic, Promega)+5 ng ALK1wt (in pcDNA3.1)+95 ng pcDNA3.1 (empty vector, Invitogen)
Fugene and OptiMEM are incubated for 5 min at RT. This mixture is incubated with the DNA for 15 min at RT.
Afterwards, the plate is incubated under shaking conditions at room temperature (RT) for 1 h. After 4 hours at 37° C. the supernatants are drawn off by suction and the wells are replaced with medium (100 μl/well) containing low serum (0.2% FCS) and test substances.
Plates are incubated for further 18 h at 37° C.
100 μl luciferase substrate (steadyliteHTS, Packard) are added per well and plates are measured after 10 minutes in a luminometer (e.g. Viktor luminometer, Perkin Elmer). Luciferase activity is quantified by relative light units (RLU).
Calculation of IC50: ALK1wt−DMSO Control (without ALK1)=100% Substance(+ALK1wt)−DMSO control (without ALK1)=x % IC50=50% inhibition of ALK1 transactivation activity Biological data are presented below: Biological assay 1: ALK1-Kinase Flashplate-Assay

| IC50 [1] [µM] | IC50 [2] [µM] | Structure (SMILES) |
| --- | --- | --- |
| < 1 | < 10 | COc1cc(-c2cnn3ccc(Nc4ccccc4)nc23)cc(OC)c1OC [Example 2, phenyl-[3-(3,4,5-trimethoxy-phenyl)-pyrazolo[1,5-a]pyrimidin-5-yl]-amine] |
| < 1 | < 10 | COc1cc(-c2cnn3ccc(Nc4ccc(F)cc4)nc23)cc(OC)c1OC [Example 3, (4-fluoro-phenyl)-[3-(3,4,5-trimethoxy-phenyl)-pyrazolo[1,5-a]pyrimidin-5-yl]-amine] |
| < 1 | < 10 | COc1cc(OC)cc(-c2cnn3ccc(NC4CCN(C)CC4)nc23)c1 [Example 10, [3-(3,5-Dimethoxy-phenyl)-pyrazolo[1,5-a]pyrimidin-5-yl]-(1-methyl-piperidin-4-yl)-amine] |
| < 1 | < 10 | COc1ccc(-c2cnn3ccc(Nc4ccc(N5CCOCC5)cc4)nc23)cn1 [Example 20, [3-(6-Methoxy-pyridin-3-yl)-pyrazolo[1,5-a]pyrimidin-5-yl]-(4-morpholin-4-yl-phenyl)-amine] |
| < 1 | < 10 | FC(F)(F)c1cccc(-c2cnn3ccc(Nc4ccc(N5CCOCC5)nc4)nc23)c1 [Example 26, (6-Morpholin-4-yl-pyridin-3-yl)-[3-(3-trifluoromethyl-phenyl)-pyrazolo[1,5-a]pyrimidin-5-yl]-amine] |
| < 1 | < 10 | COc1ccc(-c2cnn3ccc(Nc4ccc(N5CCOCC5)cc4)nc23)cc1OC [Example 27, [3-(3,4-Dimethoxy-phenyl)-pyrazolo[1,5-a]pyrimidin-5-yl]-(4-morpholin-4-yl-phenyl)-amine] |
| < 1 | < 10 | COc1cc(OC)cc(-c2cnn3ccc(Nc4ccc(N5CCOCC5)nc4)nc23)c1 [Example 30, [3-(3,5-Dimethoxy-phenyl)-pyrazolo[1,5-a]pyrimidin-5-yl]-(6-morpholin-4-yl-pyridin-3-yl)-amine] |
| < 1 | < 10 | COc1cc(OC)cc(-c2cnn3ccc(Nc4ccc(N5CCOCC5)cc4)nc23)c1 [Example 127, [3-(3,5-Dimethoxy-phenyl)-pyrazolo[1,5-a]pyrimidin-5-yl]-(4-morpholin-4-yl-phenyl)-amine] |
| < 1 | < 10 | CS(=O)(=O)c1cccc(-c2cnn3ccc(Nc4ccc(N5CCOCC5)cc4)nc23)c1 [Example 131, [3-(3-Methanesulfonyl-phenyl)-pyrazolo[1,5-a]pyrimidin-5-yl]-(4-morpholin-4-yl-phenyl)-amine] |
| < 1 | < 10 | COc1cc(-c2cnn3ccc(Nc4ccc(N5CCOCC5)cc4)nc23)cc(OC)c1OC [Example 421, (4-Morpholin-4-yl-phenyl)-[3-(3,4,5-trimethoxy-phenyl)-pyrazolo[1,5-a]pyrimidin-5-yl]-amine] |
| < 1 | < 10 | COc1cncc(-c2cnn3ccc(Nc4ccc(N5CCOCC5)cc4)nc23)c1 [Example 422, [3-(5-Methoxy-pyridin-3-yl)-pyrazolo[1,5-a]pyrimidin-5-yl]-(4-morpholin-4-yl-phenyl)-amine] |
| < 1 | < 10 | Cc1ccc(Nc2ccn3ncc(-c4cccc(O)c4)c3n2)cc1NS(C)(=O)=O [Example 427, N-{5-[3-(3-Hydroxy-phenyl)-pyrazolo[1,5-a]pyrimidin-5-ylamino]-2-methyl-phenyl}-methanesulfonamide] |
| < 1 | < 10 | CC(C)c1ccc(Nc2ccn3ncc(-c4cccc(C(N)=O)c4)c3n2)cc1 [Example 449, 3-[5-(4-Isopropyl-phenylamino)-pyrazolo[1,5-a]pyrimidin-3-yl]-benzamide] |
| < 1 | < 10 | COc1ccc(Nc2ccn3ncc(-c4ccc(OC)c(OC)c4)c3n2)cn1 [Example 465, [3-(3,4-Dimethoxy-phenyl)-pyrazolo[1,5-a]pyrimidin-5-yl]-(6-methoxy-pyridin-3-yl)-amine] |
| < 1 | < 10 | CN1CCC(Nc2ccn3ncc(-c4cccc(C(F)(F)F)c4)c3n2)CC1 [Example 490, (1-methyl-piperidin-4-yl)-[3-(3-trifluoromethyl-phenyl)-pyrazolo[1,5-a]pyrimidin-5-yl]-amine] |
| < 1 | < 10 | c1csc(-c2cnn3ccc(NC4CCNCC4)nc23)c1 [Example 495, Piperidin-4-yl-(3-thiophen-2-yl-pyrazolo[1,5-a]pyrimidin-5-yl)-amine bis TFA salt] |
